Results reported in paper PMC6271858, “Identification of Natural Compound Carnosol as a Novel TRPA1 Receptor Agonist” (Molecules, 2014).
Entries after “also recorded” stand apart in the source; their conditions may differ. Where two headings read alike, the source gives them in different places. Values belong to the compound of their own block, whether it stands above or below them.

Assays:
human TRPA1 = human TRPA1 (Homo sapiens, UniProt O75762); experiment: Calcium mobilization agonist assay in HEK293/TRPA1 cells; type: cell-based; conditions: for EC80 value: agonist concentration used to evoke the antagonist assay
Method: HEK293/TRPA1 cells were seeded at a density of 3.5 × 10^4 per well into 96-well clear-bottom black plates coated with matrigel and incubated in 5% CO2 at 37 °C overnight. On the day of assay, the growth medium was replaced by 100 µL loading buffer containing a final concentration of 4 μM Ca^2+-sensitive dye Fluo-4 AM and 2 mM acid red 1 in HBSS. The plate was then incubated at 37 °C in dark for 30 min before calcium signal read out. For antagonists study, 80 µL loading buffer was added into each well and 20 µL HBSS containing tested compound was added 10 min prior to calcium-flux measurement.
Cells were transferred to a Flexstation II (Molecular Devices) for experimentation. Basal fluorescence was recorded for 16 s before agonist application. The integrated Flexstation II fluidics system added 25 µL compound (5× solution) from the agonist compound plate to the assay plate containing 100 µL loading buffer solution. Relative fluorescence units (RFU) were read by FlexStation II at 37 °C with an excitation wavelength of 485 nm and an emission wavelength of 525 nm. The fluorescence intensity was read every 1.52 s for 80 s.
Ninety µM CA and 0.25% DMSO were used as the positive and negative control respectively during primary screening of TRPA1 agonist. Hits above the cutoff value (50%) were picked for retesting, percentage of increased calcium signal was calculated as following equation: (2) Activity%=RFUcompound−RFUnegative/RFUpositive−RFUnegative×100

HEK293 host cells = experiment: Compound specificity assay, calcium influx in HEK293 host cells; type: cell-based, human; conditions: compared with 0.25% DMSO group; positive control 5 μM ATP
Method: To observe whether the identified compounds induce calcium influx in HEK293 host cells, the cells were treated with various concentrations of tested compounds. Meanwhile, 5 μM ATP and 0.25% DMSO were used as the positive and negative control, respectively. The regulatory activity of tested samples was defined as follows: (3) Activity%=RFUcompound/RFUpositive×100

TRPM8 = TRPM8 (Homo sapiens, UniProt Q7Z2W7); experiment: Compound selectivity calcium mobilization assay in HEK293/TRPM8 cells; type: cell-based
Method: HEK 293 cell lines stably expressing human TRPA1, TRPM8 and TRPV3 channels, respectively, were established by HD Bioscience Co. Ltd (SH, China) according to the cell line generation procedure in published articles of our laboratory. All HEK293 cell lines used in this study were routinely maintained in DMEM containing 10% FBS, 100 U/mL penicillin, and 100 μg/mL streptomycin in a humidified atmosphere of 5% CO2 at 37 °C. HEK293/TRPA1, HEK293/TRPM8 and HEK293/TRPV3 cells were incubated with complete culture medium along with 50 μg/mL hygromycin B.
(§1) To study the specificity of the action target of identified compounds, the activating effect on TRPM8 and TRPV3 was tested. HEK293 cell lines stably expressing TRPM8 and TRPV3 receptors were separately stimulated by a serious concentrations of identified compounds using calcium mobilization assay as described above.

TRPV3 = molecular target: T1, TRPV3 (Homo sapiens, UniProt Q8NET8); experiment: Compound selectivity calcium mobilization assay in HEK293/TRPV3 cells; type: cell-based; conditions: series of concentrations
T1 sequence (Q8NET8 1-790): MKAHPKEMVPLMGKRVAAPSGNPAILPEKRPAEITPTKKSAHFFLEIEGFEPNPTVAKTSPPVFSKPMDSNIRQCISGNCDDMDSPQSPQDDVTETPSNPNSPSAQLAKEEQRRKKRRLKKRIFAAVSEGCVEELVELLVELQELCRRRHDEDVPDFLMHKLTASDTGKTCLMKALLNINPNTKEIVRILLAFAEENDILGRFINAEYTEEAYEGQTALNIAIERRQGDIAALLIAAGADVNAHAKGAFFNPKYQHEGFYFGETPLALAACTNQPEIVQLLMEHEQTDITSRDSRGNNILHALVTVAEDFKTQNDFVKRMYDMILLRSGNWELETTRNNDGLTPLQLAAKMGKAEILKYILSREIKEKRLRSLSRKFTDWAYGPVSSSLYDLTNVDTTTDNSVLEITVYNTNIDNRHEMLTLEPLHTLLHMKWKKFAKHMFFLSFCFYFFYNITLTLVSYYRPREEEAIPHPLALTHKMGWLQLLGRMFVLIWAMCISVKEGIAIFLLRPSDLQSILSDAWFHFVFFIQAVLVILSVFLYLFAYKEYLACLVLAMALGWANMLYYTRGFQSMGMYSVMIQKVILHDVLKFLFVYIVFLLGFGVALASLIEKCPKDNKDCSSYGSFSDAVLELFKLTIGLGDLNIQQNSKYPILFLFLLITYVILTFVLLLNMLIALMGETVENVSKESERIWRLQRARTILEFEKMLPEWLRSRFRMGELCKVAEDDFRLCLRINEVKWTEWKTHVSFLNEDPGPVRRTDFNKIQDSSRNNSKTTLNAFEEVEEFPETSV
Method: All HEK293 cell lines used in this study were routinely maintained in DMEM containing 10% FBS, 100 U/mL penicillin, and 100 μg/mL streptomycin in a humidified atmosphere of 5% CO2 at 37 °C. HEK293/TRPA1, HEK293/TRPM8 and HEK293/TRPV3 cells were incubated with complete culture medium along with 50 μg/mL hygromycin B.
as §1

HEK293/TRPA1 cells = experiment: Compound cytotoxicity assay (CellTiter-Glo, luciferase coupled ATP quantitation); type: cell-based, human; conditions: 2 h incubation, compared to the control group
Method: HEK293/TRPA1 cells were seeded at 3.5 × 10^4 per well into 96-well clear-bottom black plates and incubated in 5% CO2 at 37 °C overnight. Different concentrations of the compound were added into the 96-well plates and incubated in 5% CO2 at 37 °C for 2 h. Luminescence was read by Envision 2100 multilabel reader to detect cells’ viability following incubation with CellTiter-Glo reagent for 10 min.

human TRPA1, sequence (O75762 whole entry): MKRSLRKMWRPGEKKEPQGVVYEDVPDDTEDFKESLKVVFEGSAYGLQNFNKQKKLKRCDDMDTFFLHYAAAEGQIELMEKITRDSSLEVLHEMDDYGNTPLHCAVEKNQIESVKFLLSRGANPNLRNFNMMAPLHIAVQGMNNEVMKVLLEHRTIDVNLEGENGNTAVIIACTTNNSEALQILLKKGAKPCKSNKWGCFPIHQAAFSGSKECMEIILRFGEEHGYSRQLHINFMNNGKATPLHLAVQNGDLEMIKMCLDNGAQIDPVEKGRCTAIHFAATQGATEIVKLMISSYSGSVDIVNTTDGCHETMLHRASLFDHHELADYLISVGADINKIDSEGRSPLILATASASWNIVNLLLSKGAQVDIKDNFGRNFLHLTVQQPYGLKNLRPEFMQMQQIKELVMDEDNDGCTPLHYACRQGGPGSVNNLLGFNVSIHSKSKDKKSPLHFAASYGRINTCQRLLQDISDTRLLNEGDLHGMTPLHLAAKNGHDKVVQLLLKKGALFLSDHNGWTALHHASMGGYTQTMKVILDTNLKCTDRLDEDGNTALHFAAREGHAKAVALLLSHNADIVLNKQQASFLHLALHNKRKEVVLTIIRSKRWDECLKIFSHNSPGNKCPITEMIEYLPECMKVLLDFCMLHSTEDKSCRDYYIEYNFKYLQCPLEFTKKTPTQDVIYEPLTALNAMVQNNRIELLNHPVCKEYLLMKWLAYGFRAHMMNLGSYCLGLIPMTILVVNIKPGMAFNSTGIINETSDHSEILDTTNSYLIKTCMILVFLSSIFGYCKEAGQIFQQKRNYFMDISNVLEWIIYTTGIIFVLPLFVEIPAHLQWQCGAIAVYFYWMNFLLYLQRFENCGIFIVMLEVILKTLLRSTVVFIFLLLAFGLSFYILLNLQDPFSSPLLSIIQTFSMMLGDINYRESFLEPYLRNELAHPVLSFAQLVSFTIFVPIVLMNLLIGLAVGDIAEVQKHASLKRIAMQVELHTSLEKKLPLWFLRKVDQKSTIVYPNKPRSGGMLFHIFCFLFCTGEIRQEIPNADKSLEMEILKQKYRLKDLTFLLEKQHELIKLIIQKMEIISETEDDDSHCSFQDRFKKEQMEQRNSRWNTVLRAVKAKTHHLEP
TRPM8, sequence (Q7Z2W7 whole entry): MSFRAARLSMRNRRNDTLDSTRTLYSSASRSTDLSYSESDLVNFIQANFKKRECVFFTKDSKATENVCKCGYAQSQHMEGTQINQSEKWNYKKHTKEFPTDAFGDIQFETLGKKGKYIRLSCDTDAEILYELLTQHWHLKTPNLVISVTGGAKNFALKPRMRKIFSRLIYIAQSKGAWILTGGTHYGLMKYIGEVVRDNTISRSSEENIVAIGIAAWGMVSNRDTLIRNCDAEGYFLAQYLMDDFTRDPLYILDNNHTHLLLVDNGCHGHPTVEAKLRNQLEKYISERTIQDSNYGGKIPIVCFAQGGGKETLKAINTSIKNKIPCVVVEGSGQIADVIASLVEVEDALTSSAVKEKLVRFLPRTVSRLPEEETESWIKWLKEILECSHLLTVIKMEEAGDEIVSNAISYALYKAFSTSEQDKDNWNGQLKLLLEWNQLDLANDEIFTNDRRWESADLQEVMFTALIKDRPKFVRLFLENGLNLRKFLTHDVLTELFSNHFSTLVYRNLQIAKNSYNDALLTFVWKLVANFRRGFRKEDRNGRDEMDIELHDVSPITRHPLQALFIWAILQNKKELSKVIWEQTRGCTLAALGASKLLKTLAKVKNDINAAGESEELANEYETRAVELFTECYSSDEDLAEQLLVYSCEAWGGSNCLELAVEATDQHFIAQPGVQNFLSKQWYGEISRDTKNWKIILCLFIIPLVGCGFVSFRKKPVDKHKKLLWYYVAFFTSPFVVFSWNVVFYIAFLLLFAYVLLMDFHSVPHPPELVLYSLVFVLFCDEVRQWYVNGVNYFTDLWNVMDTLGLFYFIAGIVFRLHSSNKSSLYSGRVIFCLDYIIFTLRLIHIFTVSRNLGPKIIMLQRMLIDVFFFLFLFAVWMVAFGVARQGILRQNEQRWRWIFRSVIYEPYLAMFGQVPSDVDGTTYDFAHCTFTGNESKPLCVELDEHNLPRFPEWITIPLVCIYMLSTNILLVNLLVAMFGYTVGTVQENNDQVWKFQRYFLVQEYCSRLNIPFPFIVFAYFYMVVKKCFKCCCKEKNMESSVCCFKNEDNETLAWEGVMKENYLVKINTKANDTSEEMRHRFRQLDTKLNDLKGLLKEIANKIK

SMILES: O=C/C=C/c1ccccc1 [CA, cinnamaldehyde, reference compound]
EC50 (human TRPA1): 31.5 µM
EC80 value (human TRPA1; HEK293/TRPA1 cells): 90 µM

SMILES: CC(C)c1cc2c(c(O)c1O)[C@@]1(C(=O)O)CCCC(C)(C)[C@@H]1CC2 [carnosic acid, Carnosic acid]
Calcium signal in HEK293/TRPA1 cell line (human TRPA1; at 90 µM): caused calcium signal
Calcium signal in HEK293 host cells (HEK293 host cells): acted on HEK293 host cells

SMILES: O=C1NC(c2cccc([N+](=O)[O-])c2)=CCN1c1ccccc1O [icilin, Icilin, reference compound]
EC50 (TRPM8; HEK293/TRPM8 cells, calcium response (data not shown)): 170 nM

Second part, led by results:

Calcium signal in HEK293/TRPA1 cell line (human TRPA1; up to 90 µM): no significant calcium signal
SMILES: C[C@H]1[C@H](C)CC[C@]2(C(=O)O)CC[C@]3(C)C(=CC[C@@H]4[C@@]5(C)CC[C@H](O)C(C)(C)[C@@H]5CC[C@]43C)[C@H]12 [ursolic acid, Ursolic acid]

EC80 value (human TRPA1; HEK293/TRPA1 cells): 30 µM
EC50 (human TRPA1; HEK293/TRPA1 cells, calcium mobilization, agonist concentration-response, read-out: EC50): 12.5 µM
Stimulation signal in HEK/TRPM8 cell line (TRPM8; series of concentrations, calcium mobilization): no stimulation signal
Stimulation signal in HEK/TRPV3 cell line (TRPV3): no stimulation signal
SMILES: CC(C)c1cc2c(c(O)c1O)[C@@]13CCCC(C)(C)[C@@H]1C[C@@H]2OC3=O [carnosol, Carnosol]
Calcium signal in primary screening (human TRPA1; 10 μM, HEK293/TRPA1 cells, positive control 90 µM CA, negative control 0.25% DMSO): showed significant difference compared with the negative control; also recorded: comparable to the positive control
Calcium signal in HEK293 host cells (HEK293 host cells): no significant difference
Cytotoxicity on HEK293/TRPA1 cells (HEK293/TRPA1 cells): no significant cytotoxicity
